Measurements taken from patent publication US20110130346A1, “PEPTIDE CONJUGATES FOR DELVERY OF BIOLOGICALLY ACTIVE COMPOUNDS” (ISIS INNOVATION LIMITED, priority 2008, published 2011).

Experiments:
H2K mdx cells = test: WST-1 cell viability assay in H2K mdx cells; type: cell-based, mouse; settings: 2.5 μM to 25 μM, 12 hours
Protocol: The possible toxicity of the PNA-peptide conjugates in H2K mdx cells was examined using a WST-1 assay, which measures the metabolic activity of viable cells. Cells were grown in 96-well microplates overnight and treated with unmodified PNA as a control or PNA-peptide conjugates for 12 hours, and then incubated with WST-1 for approximately 4 hours. During this incubation period, viable cells convert WST-1 to a water-soluble formazan dye which is then quantified using an ELISA plate reader.

[1] = test system: exon and intron 23 of the dystrophin gene; test: Example 2: intramuscular injection into TA muscle, dystrophin-positive fibres by immunohistochemistry; type: in vivo, mdx mice
Excerpt: Here we aim to evaluate the potential of PNA AOs as splice correcting therapeutic agents for DMD, by studying their activity under a range of conditions in mdx mice carrying a nonsense mutation in exon 23 of the dystrophin gene. PNAs and PNA-pepide conjugates were studied following intramuscular delivery into adult (6-8 week old) mdx tibialis anterior (TA) muscles or via systemic intravenous tail vein delivery in mdx mice unless otherwise stated.
(§1) For intramuscular studies the TA muscle of each experimental mdx mouse was injected with a […] dose of PNA and PNA-peptide conjugates with saline at a final concentration of 125 μg/ml. For systemic intravenous injections, Various amount of PNA or PNA-peptide conjugates in 80 μl saline buffer were injected into tail vein of mdx mice at the final dose of 25 mg/kg, 50 mg/kg and 100 mg/kg, respectively. The animals were killed at various time points after injection by CO2 inhalation and tissues were removed and snap-frozen in liquid nitrogen-cooled isopentane and stored at −80° C.
Sections of 8 μm were cut from at least two-thirds of the muscle length of TA, quadriceps, gastrocnemius, biceps, abdominal wall and diaphragm muscles and cardiac muscle at 100 μm intervals. The sections were then examined for dystrophin expression with a polyclonal antibody 2166 against the dystrophin carboxyl-terminal region. The maximum number of dystrophin-positive fibres in one section was counted using the Zeiss AxioVision fluorescence microscope. The intervening muscle sections were collected either for RT-PCR analysis and Western blot or as serial sections for immunohistochemistry. Polyclonal antibodies were detected by goat-anti-rabbit IgGs Alexa Fluro 594 (Molecular Probe, UK). […]

[2] = test system: exon and intron 23 of the dystrophin gene; test: Example 2: intramuscular injection, nested RT-PCR of exon skipping; type: in vivo, mdx mice; settings: 5 ug intramuscular, 4 weeks after injection (peak)
Protocol: Total RNA was extracted from tested muscle tissues with Trizol (Invitrogen, UK) and 200 ng of RNA template was used for 20 μl RT-PCR with OneStep RT-PCR kit (Qiagen, UK). The primer sequences for the initial RT-PCR were Exon20Fo 5′-[…]-3′ and Ex26Ro 5′-[…]-3′ for amplification of messenger RNA from exons 20 to 26. The cycle conditions were 95° C. for 30 seconds, 55° C. for 1 minute and 72° C. for 2 minutes for 25 cycles. RT-PCR product (1 μl) was then used as the template for secondary PCR performed in […] with 0.5 U Taq DNA polymerase (Invitrogen, UK). The primer sequences for the second round were Ex20Fi 5′-[…]-3′ and Ex24Ri 5′-[…]-3. The cycle conditions were 95° C. for 1 minute, 57° C. for 1 minute, and 72° C. for 2 min for 25 cycles. The products were examined by electrophoresis on a 2% agarose gel.
as §1

[3] = test system: exon and intron 23 of the dystrophin gene; test: Example 2: intramuscular injection, Western blot of dystrophin; type: in vivo, mdx mice; settings: 5 ug intramuscular
Protocol: as §1
(§2) The collected sections were placed in a 1.5 ml polypropylene eppendorf tube (Anachem, UK) on dry ice. The tissue sections were lysed with 150 μl protein extraction buffer containing 125 mmol/l Tris-HCl (pH=6.8), 10% sodium dodecyl sulphate, 2 mol/l urea, 20% glycerol, and 5% 2-mercaptoethanol. […] The supernatant was collected and the protein concentration was quantified by Bradford assay (Sigma, UK). […] The bound primary antibody was detected by horseradish peroxidise-conjugated rabbit anti-mouse IgGs and the ECL Western Blotting Analysis system (Amersham Pharmacia Biosciences, UK). The intensity of the bands obtained from treated mdx muscles was measured by Image J software; the quantification is based on band intensity and area, and is compared with that from normal muscles of C57BL6 mice.

[4] = test system: exon and intron 23 of the dystrophin gene; test: Example 2: systemic intravenous tail vein injection, dystrophin immunostaining of muscles; type: in vivo, mdx mice
Excerpt: (§3) To develop AO splice correction therapy for DMD it is essential to establish effective systemic dystrophin correction since DMD is a systemic disease affecting all skeletal muscles, including the diaphragm, and cardiac muscle. Other AO chemistries, including 2′OMePS and PMO chemistries, have been reported to yield variable dystrophin splice correction following intravenous systemic delivery in mdx mice, with high systemic doses being required to detect appreciable efficacy. Here we wished to evaluate the potential of neutral PNA AOs for systemic splice correction in body-wide muscles, and initially evaluated a dose-response using three intravenous single PNA doses of 25, 50 and 100 mg/kg administered to 6 week old mdx mice via tail vein injections. […]
Sections of 8 μm were cut from at least two-thirds of the muscle length of TA, quadriceps, gastrocnemius, biceps, abdominal wall and diaphragm muscles and cardiac muscle at 100 μm intervals. […] The maximum number of dystrophin-positive fibres in one section was counted using the Zeiss AxioVision fluorescence microscope. […] Polyclonal antibodies were detected by goat-anti-rabbit IgGs Alexa Fluro 594 (Molecular Probe, UK). Polyclonal antibodies were detected by goat-anti-rabbit IgGs Alexa 594 (Molecular Probe, UK).

[5] = test system: exon and intron 23 of the dystrophin gene; test: Example 2: systemic intravenous injection, RT-PCR of exon skipping; type: in vivo, mdx mice; settings: intravenous 25, 50 and 100 mg/kg; gastrocnemius and abdominal muscles, not other muscles
Excerpt: (§4) To develop AO splice correction therapy for DMD it is essential to establish effective systemic dystrophin correction since DMD is a systemic disease affecting all skeletal muscles, including the diaphragm, and cardiac muscle. Other AO chemistries, including 2′OMePS and PMO chemistries, have been reported to yield variable dystrophin splice correction following intravenous systemic delivery in mdx mice, with high systemic doses being required to detect appreciable efficacy. Here we wished to evaluate the potential of neutral PNA AOs for systemic splice correction in body-wide muscles, and initially evaluated a dose-response using three intravenous single PNA doses of 25, 50 and 100 mg/kg administered to 6 week old mdx mice via tail vein injections. Dystrophin expression was studied by immunostaining of muscle tissue sections from various peripheral muscles (including quadriceps, gastrocnemius, biceps, abdominal wall, diaphragm) and heart muscle three weeks after AO administration (FIG. 7A). […] Measures of phenotypic correction, including serum biochemical measurements of creatine kinase and AST/ALT enzyme levels were negative (FIGS. 7C and D).
Total RNA was extracted from tested muscle tissues with Trizol (Invitrogen, UK) and 200 ng of RNA template was used for 20 μl RT-PCR with OneStep RT-PCR kit (Qiagen, UK). […]

[6] = test system: exon and intron 23 of the dystrophin gene; test: Example 2: systemic intravenous injection, Western blot of dystrophin; type: in vivo, mdx mice; settings: intravenous 25, 50 and 100 mg/kg
Excerpt: as §3
as §2, with “ice.” for “ice. The tissue sections were lysed with 150 μl protein extraction buffer containing 125 mmol/l Tris-HCl (pH=6.8), 10% sodium dodecyl sulphate, 2 mol/l urea, 20% glycerol, and 5% 2-mercaptoethanol.”

[7] = Example 2: serum creatine kinase and AST/ALT after systemic injection; type: in vivo, mdx mice; settings: intravenous 25, 50 and 100 mg/kg
Excerpt: as §4
Serum and plasma were taken from the mouse jugular vein immediately after the killing with CO2 inhalation. […]

5′-ggccaaaccteggcttacct-3′ [PNA]
Toxicity or inhibition of cell proliferation (WST-1) (H2K mdx cells): not observed
number of dystrophin-positive fibres ([1]; 12-month old mdx mice, 5 ug intramuscular into TA, two weeks): 388±24
persistence of splice correction effect ([1]; two month old mdx mice, 5 ug intramuscular): greater than 20 weeks
number of dystrophin-positive fibres ([1]; two month old mdx mice, 5 ug intramuscular, 8 week time point (peak)): greater than 650
targeted dystrophin transcripts showing splice correction (RT-PCR) [2]: about 50%
level of dystrophin protein restored (Western blot) ([3]; 8 week time point): about 20 % of normal levels
dystrophin protein (Western blot) ([3]; 20 weeks post administration): considerably reduced levels
dose response of dystrophin positive fibres ([4]; intravenous 25, 50 and 100 mg/kg): No evidence of a dose response
number of dystrophin positive fibres in peripheral muscles and heart ([4]; single intravenous 25, 50 and 100 mg/kg, 6 week old mdx mice, three weeks, all muscle groups except diaphragm and heart): low nevertheless showing a significant increase
exon skipping (RT-PCR) [5]: only very level of exon skipping
dystrophin protein (Western blot) [6]: Under detectable level
phenotypic correction: serum creatine kinase and AST/ALT enzyme levels [7]: negative
